Test results taken from patent US5945429A, “Compounds useful for inhibition of farnesyl protein transferase” (Schering Corporation, priority 1997, dated 1999).
Several values for one entry are separate records, joined by “and”; a condition that tells them apart may be missing. Equal values may be shown once.

Assays:
[1] = target: T1, farnesyl protein transferase (Homo sapiens, UniProt P49354+P49356); assay: FPT inhibition, in vitro enzyme assay (H-ras); type: biochemical
Method: (§1) FPT IC50 (inhibition of farnesyl protein transferase, in vitro enzyme assay) and COS Cell IC50 (Cell-Based Assay) were determined following the assay procedures described in WO 95/10516, published Apr. 20, 1995. GGPT IC50 (inhibition of geranylgeranyl protein transferase, in vitro enzyme assay), Cell Mat Assay, and anti-tumor activity (in vivo anti-tumor studies) could be determined by the assay procedures described in WO 95/10516. The disclosure of WO 95/10516 is incorporated herein by reference thereto.

[2] = target: T1, farnesyl protein transferase; assay: FPT inhibition, in vitro enzyme assay (K-ras); type: biochemical
Method: as §1

COS Cell = COS Cell IC50 (Cell-Based Assay); conditions: COS cells
Method: as §1

Human tumor cells = assay: Soft Agar Assay (anchorage-independent growth of human tumor cells); type: cell-based; conditions: 10-16 days at 37° C., 5% CO2, MTT stain
Method: Soft Agar Assay: Anchorage-independent growth is a characteristic of tumorigenic cell lines. Human tumor cells are suspended in growth medium containing 0.3% agarose and an indicated concentration of a farnesyl transferase inhibitor. The solution is overlayed onto growth medium solidified with 0.6% agarose containing the same concentration of farnesyl transferase inhibitor as the top layer. After the top layer is solidified, plates are incubated for 10-16 days at 37° C. under 5% CO2 to allow colony outgrowth. […] Colonies can be counted and the IC50 's can be determined.

T1 sequence (P49356 whole entry, one chain of several): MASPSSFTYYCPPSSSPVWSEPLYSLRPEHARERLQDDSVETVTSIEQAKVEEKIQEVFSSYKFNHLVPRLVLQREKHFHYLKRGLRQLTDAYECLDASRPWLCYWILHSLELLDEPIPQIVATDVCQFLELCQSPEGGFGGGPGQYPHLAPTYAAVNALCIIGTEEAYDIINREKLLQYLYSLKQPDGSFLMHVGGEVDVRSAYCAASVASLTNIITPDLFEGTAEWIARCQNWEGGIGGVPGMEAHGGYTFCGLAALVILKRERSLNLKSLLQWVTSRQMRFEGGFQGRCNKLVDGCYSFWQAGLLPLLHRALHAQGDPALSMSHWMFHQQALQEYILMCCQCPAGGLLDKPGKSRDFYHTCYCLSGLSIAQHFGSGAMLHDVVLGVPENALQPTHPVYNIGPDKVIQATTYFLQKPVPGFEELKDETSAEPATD

Row | Compound | IC50 [1] | IC50 [2] | IC50 (COS Cell) | IC50 (Human tumor cells)
1 | CC(C)S(=O)(=O)N1CCC(CC(=O)N2CCC([C@H]3c4ncc(Br)cc4CCc4cc(Cl)cc(Br)c43)CC2)CC1 [Example 8] | 5.8 nM | 22.9 nM | – | –
2 | Cn1cnc(S(=O)(=O)N2CCC(CC(=O)N3CCC([C@H]4c5ncc(Br)cc5CCc5cc(Cl)cc(Br)c54)CC3)CC2)c1 [Example 14] | – | – | 400 nM | –
3 | CC1(C)[C@@H]2CC[C@@]1(CS(=O)(=O)N1CCC(CC(=O)N3CCC([C@H]4c5ncc(Br)cc5CCc5cc(Cl)cc(Br)c54)CC3)CC1)C(=O)C2 [Example 10] | 34.1 nM | 52.5 nM | – | –
4 | O=C(CC1CCN(S(=O)(=O)c2cccs2)CC1)N1CCC([C@H]2c3ncc(Br)cc3CCc3cc(Cl)cc(Br)c32)CC1 [Example 13] | – | – | 50 nM | > 250 nM
5 | CCS(=O)(=O)N1CCC(CC(=O)N2CCC([C@H]3c4ncc(Br)cc4CCc4cc(Cl)cc(Br)c43)CC2)CC1 [Example 6] | 3.7 nM | 16.4 nM | 12 nM | 100 nM
6 | O=C(CC1CCN(S(=O)(=O)Cc2ccccc2)CC1)N1CCC([C@H]2c3ncc(Br)cc3CCc3cc(Cl)cc(Br)c32)CC1 [Example 9] | 17.5 nM and 8 nM | – | – | –
7 | CCCS(=O)(=O)N1CCC(CC(=O)N2CCC([C@H]3c4ncc(Br)cc4CCc4cc(Cl)cc(Br)c43)CC2)CC1 [Example 7] | 5 nM | 14.2 nM | – | –
